Experimental data: the supplement of paper PMC10307832

How the values were obtained:
Test in all cases: relative viability (nuclei count vs DMSO), 5 days (fraction); higher = more cells survive
[1] = compound: CCOc1cc2ncc(C#N)c(Nc3ccc(OCc4ccccn4)c(Cl)c3)c2cc1NC(=O)/C=C/CN(C)C [Neratinib] + C[C@]1(O)C[C@@H](c2nc(-c3ccc4ccc(-c5ccccc5)nc4c3)c3c(N)nccn32)C1 [Linsitinib] (partner 1 µM)
Summary of the method: (§1)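 Values are medians from duplicate plates. Each reflects relative viability, defined as the nuclei count of treated wells over that of vehicle wells. Lung cancer cell lines in 1536-well plates were pin-tool dosed one day after seeding with one drug alone or with a fixed anchor-drug dose plus five library-drug doses (not always all listed) in √10 steps, then fixed, stained and imaged at 4× after 5 days.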

[2] = compound: CCOc1cc2ncc(C#N)c(Nc3ccc(OCc4ccccn4)c(Cl)c3)c2cc1NC(=O)/C=C/CN(C)C [Neratinib] + Nc1ncn([C@H]2C[C@H](O)[C@@H](CO)O2)c(=O)n1 [Decitabine] (partner 2 µM)
Summary of the method: as §1

[3] = compound: CCOc1cc2ncc(C#N)c(Nc3ccc(OCc4ccccn4)c(Cl)c3)c2cc1NC(=O)/C=C/CN(C)C [Neratinib] + CS(=O)(=O)N1CCN(Cc2cc3nc(-c4cccc5[nH]ncc45)nc(N4CCOCC4)c3s2)CC1 [Pictilisib] (partner 1 µM)
Summary of the method: as §1

[4] = compound: CCOc1cc2ncc(C#N)c(Nc3ccc(OCc4ccccn4)c(Cl)c3)c2cc1NC(=O)/C=C/CN(C)C [Neratinib] + Cc1nc(NC(=O)N2CCC[C@H]2C(N)=O)sc1-c1ccnc(C(C)(C)C(F)(F)F)c1 [Alpelisib] (partner 2 µM)
Summary of the method: as §1

Cell Line	relative viability ([1]; first compound 0.01 µM)	relative viability ([1]; first compound 0.03162 µM)	relative viability ([1]; first compound 0.1 µM)	relative viability ([1]; first compound 0.3162 µM)	relative viability ([1]; first compound 1 µM)	relative viability ([2]; first compound 0.01 µM)	relative viability ([2]; first compound 0.03162 µM)	relative viability ([2]; first compound 0.1 µM)	relative viability ([2]; first compound 1 µM)	relative viability ([3]; first compound 0.01 µM)	relative viability ([3]; first compound 0.03162 µM)	relative viability ([3]; first compound 0.1 µM)	relative viability ([3]; first compound 0.3162 µM)	relative viability ([3]; first compound 1 µM)	relative viability ([4]; first compound 0.01 µM)	relative viability ([4]; first compound 0.03162 µM)	relative viability ([4]; first compound 0.1 µM)	relative viability ([4]; first compound 0.3162 µM)	relative viability ([4]; first compound 1 µM)	relative viability ([2]; first compound 0.3162 µM)
COR-L 105	0.989	1.07	0.754	0.298	0.241	0.674	0.618	0.402	0.349	0.455	0.412	0.377	0.31	0.312	1.04	0.936	0.704	0.263	0.255	
LK-2	0.464	0.521	0.71	0.339	0.214	0.321	0.372	0.305	0.24	0.653	0.566	0.594	0.446	0.266	1.15	1.17		0.816	0.327	0.225
PC-3 [JPC-3]	1.03	1.03	0.894		0.348	0.814	0.912	0.764	0.606	0.81	0.739	0.616	0.536	0.473	1.07	1.07	1.02	0.918	0.316	0.547
UMC-11	0.925	1.07	0.655	0.921	0.684	0.324	0.574	0.634	0.194	0.776	1.06	0.566	0.746	0.701	0.721	0.988	0.96	0.963	0.802	0.414
NCI-H2085	0.858	1.11	0.81	0.668	0.474	0.595	0.547	0.542	0.516	0.526	0.436	0.462	0.408	0.373	1.02		0.778	0.7	0.549	0.485
NCI-H441	0.585	0.716	0.469	0.267	0.219	0.255	0.246	0.235	0.2	0.508	0.482	0.456	0.313	0.191	0.972	0.906		0.504	0.254	0.209
NCI-H1666	0.876	0.654	0.591	0.372	0.361			0.747	0.604	0.549		0.327	0.218	0.271	0.919	0.772	0.57	0.433	0.369	0.612
SW 900						0.438	0.43	0.427	0.469											0.514
NCI-H2126	0.693	0.719	0.581	0.654	0.38	0.644	0.632	0.54	0.556		0.495	0.431	0.414	0.365	0.829	0.723	0.724	0.679	0.382	0.566
LU99A	0.608	0.643	0.365	0.575	0.215		1.12	0.752	0.578	0.31	0.311	0.285	0.263	0.207	0.66	0.625	0.483	0.323	0.259	0.952
HCC-366	0.736	0.734		0.759	0.614	0.361	0.429	0.33	0.471	0.174	0.149	0.101	0.137	0.112	0.716	0.418	0.402		0.35	0.368
EKVX	1.12	0.85	0.842	0.276	0.141	0.339	0.351	0.324	0.16	0.476	0.387	0.32	0.163	0.129	0.878	0.973	0.645	0.284	0.161	0.197
NCI-H1755	1.04	0.988	0.911	1.05	0.775	0.728	0.715	0.718	0.858	0.475	0.455	0.407	0.36	0.209	0.947	1.04	0.899	0.946	0.409	0.805
NCI-H727	0.244	0.282		0.286	0.255	0.897	0.846		0.717	0.337	0.256		0.516	0.258	0.525	0.542		0.441	0.276	0.796
LC-2-ad	0.87	0.842	0.785	0.673	0.321	0.931	0.815	0.72		0.525	0.485	0.0712	0.249	0.162	0.923	0.95	0.734	0.783	0.312	0.7
NCI-H1793	0.863	1.03	0.494	0.596	0.364	0.521	0.455		0.266	0.31	0.361	0.319	0.339	0.275	0.708	0.664	0.472	0.519	0.296	0.383
HCC-827	1	0.971	0.933	0.931	0.221	0.375	0.354	0.271	0.217	0.872	0.88	0.73	0.623	0.219	1.05	1.11	0.967	0.583	0.182	0.243
HCC-78	0.543	0.665	0.483	0.338	0.241	0.816		0.651	0.649	0.184	0.233	0.215	0.215	0.182	0.359	0.344	0.329	0.254	0.225	0.691
NCI-H2087	0.951	0.949		0.765	0.615	0.272	0.333	0.239	0.215	0.989	0.899		0.799	0.492	1.15	1.11		1.05		0.254

Cell Line	relative viability ([1]; first compound 0.01 µM)	relative viability ([1]; first compound 0.03162 µM)	relative viability ([1]; first compound 0.1 µM)	relative viability ([1]; first compound 0.3162 µM)	relative viability ([1]; first compound 1 µM)	relative viability ([2]; first compound 0.01 µM)	relative viability ([2]; first compound 0.03162 µM)	relative viability ([2]; first compound 0.1 µM)	relative viability ([2]; first compound 1 µM)	relative viability ([3]; first compound 0.01 µM)	relative viability ([3]; first compound 0.03162 µM)	relative viability ([3]; first compound 0.1 µM)	relative viability ([3]; first compound 0.3162 µM)	relative viability ([3]; first compound 1 µM)	relative viability ([4]; first compound 0.01 µM)	relative viability ([4]; first compound 0.03162 µM)	relative viability ([4]; first compound 0.1 µM)	relative viability ([4]; first compound 0.3162 µM)	relative viability ([4]; first compound 1 µM)	relative viability ([2]; first compound 0.3162 µM)
SK-LU-1	1.15	1.31	0.876	0.629	0.401	0.662	0.796	0.588	0.421	0.647	0.65	0.514	0.505	0.34	1.18	1.16	0.915	0.587	0.447	0.579
NCI-H2342							0.829	0.743	0.649											0.558
A-427	1.13	1.19	1.11	1.07	0.731	0.558	0.606	0.573	0.54	0.952	0.738	0.773	0.675	0.62	1.01	1.16	1.06		0.521	0.521
H3255	0.963	0.961	0.725	0.233	0.0969	0.548	0.471	0.454	0.245	0.453	0.469	0.301	0.117	0.109	0.706		0.468	0.171	0.107	0.218
HCC-44	0.724	0.697	0.641		0.691	0.993	0.983	0.897	1.09	0.852	0.561	0.655	0.642	0.643	0.97	0.95	0.702	0.838	0.754	0.922
NCI-H1734	0.997	0.925	0.814	0.754	0.646	0.539	0.579		0.481	0.5	0.464	0.428	0.432	0.346	0.744		0.588	0.533	0.479	0.54
NCI-H23	0.62		0.486	0.552	0.398	0.325	0.298	0.289	0.264	0.553	0.428	0.437	0.483	0.372	0.832	0.716	0.653	0.686	0.329	0.404
ABC-1	0.781		0.611	0.433	0.292	1.21	1.31	1.23	0.746	0.783	0.582	0.672	0.666	0.387	1.16	1.04	0.726	0.904	0.384	1.07
COR-L23	1.01	1.08	0.879	0.835	0.318	0.456	0.478	0.499	0.473			0.739	0.644	0.257	0.971	0.83	0.732	0.698	0.322	0.495
PC-14	0.979	1.1	0.872	0.639	0.216	0.217	0.285	0.241	0.108	0.927	0.805	0.66	0.121	0.101	1.04	0.978	0.83	0.732	0.208	0.194
ChaGo-K-1						0.517	0.581	0.517	0.534	0.668	0.781	0.689	0.639	0.614						0.526
NCI-H1650						0.398	0.474	0.474	0.613	0.565	0.682	0.513	0.531	0.517						0.472
EBC-1	0.932	1.08	0.842	0.914	1.04					0.398	0.408	0.378	0.319	0.274	0.912	0.958	0.795	0.754	0.517	
NCI-H1648						0.505	0.389	0.384	0.366											0.352
NCI-H1703	0.636	0.641	0.659	0.516	0.509					0.23	0.224	0.244	0.201	0.212	0.36	0.354	0.279	0.205	0.165	
CAL-12T	0.771	1.09	0.703	0.455	0.343					0.491	0.548	0.362	0.396	0.218	1.1	1.21	0.886	0.517	0.201	
NCI-H1563	1.22	1.24	0.993	1.1	0.998					0.608	0.636	0.664	0.617	0.602	0.815	0.984	0.877	0.843	0.875	
NCI-H2228	0.88	0.526	0.388	0.582	0.421					0.365	0.346	0.301	0.442	0.199	0.702	0.703	0.599	0.497	0.243	
NCI-H2170						0.548	0.457	0.412	0.18	0.314	0.253	0.206	0.189	0.256	0.619	0.383	0.314	0.21	0.265	0.213
